Tested on: AR protein
Experiment: AR protein degradation in MDA-MB-453 cells, Western blotting
Type: cell-based
Details: 24 hr treatment
Description: The appropriate cell line, e.g., prostate cancer LNCaP, Vcap, or 22RV1 cell line, was treated with Compounds of the Disclosure as indicated. The treated cells were lysed with RIPA buffer. The AR level in the cell lysates was examined by western blotting and a specific AR antibody (ab194196, Abcam, Cambridge, MA 02139) with concentration of 1:20,000. GAPDH was used as a loading control.
Bands were quantified with ImageJ software. The relative numbers of each band obtained from normalization with its corresponding GAPDH level were compared with Prism 8 software. The DC50 values were produced from Prism 8, and the DC90 values were calculated with an equation=Bottom + (Top-Bottom)/(1+10^((LogEC50-X)*HillSlope) based on DC50 and Hillslope values.
The amount of AR protein degradation in VCap and MDA-MB-453 cells caused by representative Compounds of the Disclosure at the concentrations indicated is presented in Table 4, FIG. 1, and FIG. 2.

## N#Cc1ccc(O[C@H]2CC[C@H](N3Cc4cc(N5CCN(CC(=O)N6Cc7cc8c(cc7C6)C(=O)N(C6CCC(=O)NC6=O)C8=O)CC5)ccc4C3=O)CC2)cc1Cl (some centres unmarked) [compound 4]
10 nM
  AR protein degradation MDA-MB-453 10 nM: B (>50% degradation but <90% (24 hr treatment))
100 nM
  AR protein degradation MDA-MB-453 100 nM: A (>90% degradation (24 hr treatment))

Reference: patent US20230357249A1, “ANDROGEN RECEPTOR PROTEIN DEGRADERS WITH A TRICYCLIC CEREBLON LIGAND” (THE REGENTS OF THE UNIVERSITY OF MICHIGAN, priority 2020, published 2023)
